Reference: US5081031A, “Synthetic polypeptide with type IV collagen activity” (Regents of the University of Minnesota, priority 1989, dated 1992)
“Also recorded” adds a separate entry of the source.

Key:
[1] = molecular target: T1, binding of heparin to peptide Hep-II (Homo sapiens, UniProt P08572); assay: Heparin/peptide interaction specificity: competition of 3H-heparin binding to coated peptide Hep-II by glycosaminoglycans; conditions: Hep-II coated from 500 μg/ml; 3H-heparin 50,000 cpm per well; 2 h 37° C.
T1 construct: made in house; host or cells: chemical solid-phase (Merrifield) synthesis, no expression host
Experimental: To check the specificity of the interaction between heparin and peptide Hep-II or whether the heparin structure was also critical to this interaction, heparin along with other sulfated glucosaminoglycans, dextran and chondroitin sulfate were used in competition experiments. A standard amount of 50 μg of a solution containing 500 μg/ml of peptide Hep-II was coated on 96-well plates as described above. Wells were treated for two hours with 2 mg/ml BSA in wash buffer. Then, a final volume of 50 μl was added to each well, containing a standard amount of […] (50,000 cpm per well) and various amounts of non-radioactive heparin, dextran or chondroitin sulfate. After incubating for two hours at 37° C., the wells were washed and radioactivity was counted as described above in Example 1.

[2] = system: bovine aortic endothelial cells; assay: Direct adhesion of endothelial cells to peptide-coated plastic; format: cell-based; conditions: 35S-labeled cells, 120 min. at 37° C.; increasing coating concentrations
Experimental: Bovine aortic endothelial cells were isolated according to the following protocol. Aortas were obtained from a local slaughterhouse, washed in cold phosphate buffered saline (PBS) (136 mM NaCl, 2.6 mM KCl, 15.2 mM Na2 HPO4, pH 7.2) and processed within 2 hours. Crude collagenase (CLS III, 125-145 units per mg dry weight, Cooper Biomedical) was used at 2 mg/ml in Dulbecco's modified Eagle's medium (DMEM) (GIBCO). The vessel was clamped at the distal end, filled with the collagenase-PBS solution and digestion was carried out for 10 minutes. The lumenal contents were harvested, followed by the addition of fresh collagenase for two additional 10-minute periods. The enzyme-cell suspensions were added to an equal volume of DMEM containing 10% fetal bovine serum (FBS) to inhibit the enzyme and spun in a centrifuge at 400× g for 10 minutes. The resulting cell pellet was resuspended in DMEM containing 10% FBS, 100 units/ml of penicillin G, 100 μg/ml of streptomycin and 100 μg/ml of crude fibroblast growth factor. Cells are cultured in 75 cm^2 flasks in a humidified 5% CO2 atmosphere at 37° C. Cultures were fed twice a week with the same medium and cells were used in assays when approximately 75% confluent. […] At the end of the incubation period the wells were washed, bound radioactivity was solubilized by 1% SDS-0.5 N NaOH and quantitated in a Beckman scintillation counter. […]

endothelial cells [3] = assay: Inhibition of the binding of 125I-labeled peptide Hep-II to the cell surface by excess unlabeled peptide; parameters: species or system bovine; conditions: unlabeled peptide up to 500-fold excess; 15 min. at 4° C.
Experimental: Endothelial cells were grown in culture as discussed in examples 4 and 5A (supra). On the day of the experiment, the cells were harvested by trypsinization (supra) and were co-incubated with 50 μl of peptide Hep-II. 50 μl a constant amount of ^125 I-labeled peptide Hep-II was mixed with increasing concentrations of unlabeled peptide Hep-II or a control peptide (maximal excess of unlabeled peptide: 500-fold over radiolabeled Hep-II). 50 μl of each concentration of unlabeled peptide which was mixed with radiolabeled Hep-II were then added to cells in suspension (5,000 cells per concentration of peptide). The cells were incubated with the mixture of unlabeled-radiolabeled peptide for 15 min. at 4° C. and they were then pelleted. The cells were subsequently washed and bound radioactivity was quantitated as described in example 4. […] These experiments provide confirmation that a specific interaction occur between endothelial-cell surfaces and peptide Hep-II.

[4] = Heparin binding to plastic plates coated with peptide (3H-heparin direct binding)
Experimental: The ability of the synthesized peptide Hep-II to interact with heparin when coated on 96-well plastic plates was evaluated. Stock solutions of peptide Hep-II at a concentration of 500 μg/ml were prepared in phosphate-buffered saline containing 0.02% sodium azide. Fifty μl from each concentration was coated on the 96-well plates and left to dry overnight at 28° C. Then, wells were treated for two hours with […] of 2 mg/ml BSA and 6 mM phosphate, 10 mM NaCl, 68 μM CaCl2, pH 6.8 (wash buffer) in order to minimize non-specific binding. Next 50 μl of ^3 H-heparin (10 μg/ml) was added at increasing concentrations (0 to 1400 ng/well) for two hours at 37° C. The wells were then washed three times with wash buffer containing 0.05% Triton X-100 and finally they were incubated for thirty minutes at 60° C. with 200 μl of 0.5 N NaOH and 1% SDS. The amount of ^3 H-heparin bound at each concentration was quantitated with a Beckman LS-3801 liquid scintillation counter. […] Comparison with data obtained in the past using exactly the same methodology indicate that peptide Hep-II is at least 10 times stronger than peptide Hep-I (see FIG. 3B) and about 100 times stronger than type IV collagen, when used in the same coating concentrations.

[5] = system: melanoma and endothelial cells; assay: Promotion of cell adhesion and spreading (summary statements); format: cell-based; conditions: many cell types, including melanoma and endothelial cells
[6] = system: binding of heparin to type IV collagen; assay: Inhibition of heparin binding to type IV collagen coated on plastic by peptide in solution; conditions: peptide in solution 0.5 mg/ml to 5 μg/ml; 3H-heparin 500 ng per well; type IV collagen coated at 60 μg/ml
Experimental: Peptide Hep-II in solution (and not absorbed to plastic), was screened for the ability to inhibit the binding of heparin to intact, native type IV collagen coated on plastic. This experimental approach avoids problems due to differential coating of peptides in heparin binding assays. Type IV collagen at 60 μg/ml in PBS was coated on 96-well plates, using 50 μl per well and dried overnight at 28° C. The wells were then treated for two hours with 2 mg/ml BSA in wash buffer (described above in Example 1). Peptide Hep-II at various dilutions ranging from 0.5 mg/ml to 5 μg/ml in PBS and CHAPS (cholamido-propyl-dimethyl-ammonio-propane-sulfonate) (a detergent used to avoid non-specific sticking) was co-incubated with a standard amount of ^3 H-heparin (500 ng per well […] final concentration) for two hours at 37° C. and the mixture was then transferred to the […] coated plate (50 μl ) and allowed to incubate for another two hours at 37° C. The wells were then washed and radioactivity was counted as described above. […] Peptide Hep-I is also shown in comparison.

endothelial cells [7] = assay: Direct binding of 125I-labeled peptide Hep-II to cell surfaces; parameters: species or system bovine; conditions: about 5,000 cells, 15 min. at 4° C., increasing concentrations
Experimental: Endothelial cells were grown in culture as described in example 4 (supra). Cells used for this type of experiment were not labeled with radioactivity. Unlabeled cells were harvested by trypsinization (supra) on the day of the experiment. About 5,000 cells were mixed with 50 μl of a given concentration of peptide Hep-II in solution. Increasing concentrations of peptide Hep-II were used. The cells were incubated with the iodinated peptide for 15 min. at 4° C. and they were then pelleted by centrifugation. The cells were then resuspended and washed 3 times with DMEM containing 2 mg/ml BSA and 50 mM Hepes. Following the washes, the cells were pelleted for a final time in plastic tubes, the supernatant was decanted and the radioactivity of the pellet was quantitated in a Beckman scintillation counter. The binding of peptide Hep-II to endothelial cells is saturable (FIG. 8)----an indication of specificity. These experiments indicate that peptide Hep-II specifically interacts with the surfaces of endothelial cells.

[8] = reported from U.S. Pat. No. 4,876,332; cited from earlier work
[9] = system: melanoma and endothelial cells; conditions: reported from U.S. Pat. No. 4,876,332; cited from earlier work

chondroitin sulfate
competition for the binding of tritiated heparin to peptide Hep-II [1]: cannot mimic this effect except at extremely high concentrations

dextran
competition for the binding of tritiated heparin to peptide Hep-II [1]: substantially more dextran is needed to achieve similar levels of competition

heparin
competition for the binding of tritiated heparin to peptide Hep-II [1]: able to compete for the binding of tritiated heparin to peptide Hep-II at very low concentrations

leu-ala-gly-ser-cys-leu-ala-arg-phe-ser-thr-met (LAGSCLARFSTM) [Hep-II, type IV collagen residues 49-60 from the carboxyl-terminus of the α2 chain of the NCl domain]
adhesion of endothelial cells to coated substrate [2]: promotes substantial adhesion of endothelial cells even at very low plating concentrations
competition of the binding of radiolabeled Hep-II to the surface of endothelial cells (endothelial cells [3]): can be competed only by an excess of unlabeled peptide Hep-II
heparin binding to peptide coated on plastic ([4]; peptide coated on 96-well plates from 500 μg/ml stock, 3H-heparin 0 to 1400 ng/well, 2 h 37° C.): extremely potent promoter of heparin-binding; also recorded: very potent binder of heparin
heparin binding strength relative to type IV collagen ([4]; same coating concentrations, same methodology): about 100 times
promotion of cell adhesion/attachment and spreading [5]: potent promoter of cell adhesion and spreading; also recorded: potent promoter of cell attachment and spreading
inhibition of heparin binding to type IV collagen [6]: strong inhibitor of heparin binding to type IV collagen
binding of 125I-labeled peptide to endothelial cells (endothelial cells [7]): saturable

thr-ala-gly-ser-cys-leu-arg-lys-phe-ser-thr-met (TAGSCLRKFSTM) [Hep-I, peptide from the NCl domain of the α1(IV) chain, position 49-60 from the carboxyl terminus; U.S. Pat. No. 4,876,332]
heparin binding (earlier U.S. Pat. No. 4,876,332) [8]: ability to bind heparin
promotion of cell adhesion (earlier U.S. Pat. No. 4,876,332) [9]: promote cell adhesion
